In data set [1] the test system is CBA/J female mice, oxazolone-induced inflammatory ear edema. Put plainly: Delayed type hypersensitivity: oxazolone-induced ear edema. The format is in vivo. From the text:
CBA/J female mice (Jackson Labs, Bar Harbor, ME) 7 weeks of age were pre-sensitized with 3% oxazolone (Sigma Chemical Co., St. Louis, Mo.) in 99.9% acetone, on the abdomen. After 8 days, the mice were challenged with 1.2% oxazolone topically on one ear to induce an inflammatory edema. Either Structural Formula V, Structural Formula IV at a dose of 7 nmoles/ear each, or ethanol, i.e. vehicle control (eight mice per study group), was applied topically to the ear immediately after the oxazolone challenge. Ear edema was measured by comparing the tissue water content (the wet weight minus the dry weight) of the challenged ear to that of the control ear. The percent edema (% water in the right ear-left ear) in the vehicle control was 6.5% and 2.1% and 3.9% for Structural Formula V and Structural Formula IV, respectively at a dose of 7 nmoles/ear.

Data set [2] can be described thus: Catalase activity, hydrogen peroxide consumed at 20 minutes. The following applies: over 20 minutes; 10 μM compound, 100 μM hydrogen peroxide, 40 mM sodium phosphate pH 7.4. The format is biochemical. The method, then: (§1) Catalase activity was measured by incubating the sample compound with hydrogen peroxide and determining the amount of hydrogen peroxide remaining after a period of time using a colorimetric peroxidase-coupled assay method. 10 μM sample compound and 100 μM hydrogen peroxide in 40 mM sodium phosphate pH 7.4 were incubated together at ambient temperature in a multi-well plate. After the desired reaction period had elapsed, 20 μl of peroxidase/ABTS reagent was added (peroxidase/ABTS reagent contained 100 μl of 50 mM Na phosphate, pH 7.4, 1 mg horseradish peroxidase (1310 U/mg) and […]). After five minutes, absorbance at 750 nm was determined. The amount of hydrogen peroxide remaining was calculated based on a standard curve. To compare rates of catalase reaction, the amount of hydrogen peroxide consumed at 20 minutes was determined (See table III). It was also of interest to determine the total number of turnovers completed by the compound before inactivation by hydrogen peroxide. This was assayed under similar conditions, except that 15.8 μM compound was combined with 1582 μM hydrogen peroxide in 5 mM Na phosphate, pH 7.4. Reactions were allowed to proceed to completion and then the amount of hydrogen peroxide remaining was determined as described above. Results showing […] in the turnover assay (nmoles hydrogen peroxide per nmole compound) are also shown in Table III.

Data set [3] in a line: Catalase turnover assay, total hydrogen peroxide consumed before inactivation. The format is biochemical. The following applies: to completion, 15.8 μM compound, 1582 μM hydrogen peroxide, 5 mM Na phosphate pH 7.4. On the procedure: as §1
The nature of data set [4]: Peroxidase activity, ABTS oxidation. The format is biochemical. The following applies: 10 μM compound, 200 μM hydrogen peroxide, 500 μM ABTS, pH 8.1, 740 nm. On the procedure: Peroxidase activity was measured by incubating 10 μM compound, 200 μM hydrogen peroxide and 500 μM ABTS in 50 mM sodium phosphate, pH 8.1. The rate of ABTS oxidation was monitored at 740 nm and initial rates (change in absorbance per min.) determined.

A short description of data set [5]: Superoxide dismutase activity, xanthine-xanthine oxidase / cytochrome C. Type of data set: biochemical. The following applies: reciprocal of IC50; xanthine 60 μM, xanthine oxidase 0.009 units/ml, cytochrome C 27.8 μM. On the procedure:
Superoxide Dismutase Activity was measured by incubating the compound with a superoxide generating system (Xanthine, 60 μM-Xanthine Oxidase, 0.009 units/ml) and a detector molecule (Cytochrome C, 27.8 μM). Upon reacting with a molecule of superoxide, Cytochrome C undergoes a spectrum-shift which can be detected as an increase in absorbance at 550 nm. In this assay procedure, the reactant concentrations were adjusted to give a reaction rate close to 0.1 AU/min. at 2-3 min. after the reaction began. Addition of compounds with Superoxide Dismutase activity reduce the rate of absorbance change. Compounds were assayed at several concentrations (typically at 0, 2, 4, and 8 μM) and the resulting rates were graphed and fitted to a linear regression formula. The linear regression formula was then solved to determine the concentration of compound required to reduce the reaction rate to 50% of the rate without compound present (IC50).

In data set [6] the test system is ΦX 174 DNA Plasmid (Form I). Put plainly: Cleavage of ΦX 174 DNA plasmid (form I), compound alone or activated with KHSO5. The format is biochemical, phage ΦX 174. The following applies: for S (single-strand breaks per DNA molecule) / form % I / form % II / form % III: DNA 3.5 nM, compound 10 nM. From the text:
The DNA cleavage activity was quantified in terms of number of single-strand breaks per DNA molecule according to the equation […], Io=% form I (supercoiled DNA) in the DNA control, and I=% form I in the experiment (see Bernadou et al, Biochemistry, 28: 7268-7275, (1989)). This assay is very sensitive and is able to detect very low levels of DNA activity. S values less than S=1.0 are indicative of very low DNA cleavage activity when the compounds are at a concentration of equal to or less than 1000 nM and KHSO5 is present at a concentration of equal to or less than 100 μM.
ΦX 174 DNA digestion conditions for standard experiments were as follows: commercially available DNA was diluted to 50 μg/mL in phosphate buffer (10 mM, pH 7.5). The reaction involved 5 μL of ΦX 174 DNA (50 μg/mL, 74.8 μM in base pairs), 5 μL of 40 mM phosphate buffer, pH 7.5 with 400 mM NaCl, 5 μL of metalloporphyrin in double-distilled water or 5 μL of iron-bleomycin complex in double-distilled water, and 5 μL of KHSO5 or 5 μL of H2O2 or 5 μL of ascorbate in double-distilled water. Preincubation of DNA and metalloporphyrins or iron-bleomycin complex was performed for about 15 min. The digestion time in the presence of KHSO5 was 10 min, of H2O2 was 30 min and of ascorbate was 30 min at 20° C. DNA cleavage was monitored by agarose gel electrophoresis. Reactions with KHSO5 were first quenched by 2 μL of 100 mM Hepes buffer, pH 8. In all cases, reactions were quenched by 5 μL of a stopping reagent. The stopping reagent consisted of 250 mM Hepes buffer, pH 7.4, containing 75% glycerol and 0.05% bromophenol blue. Reaction mixtures were then run in 0.8% agarose slab horizontal gel containing ethidium bromide […], at constant current (25 mA for 15h), in 89 mM Tris-borate buffer and 2.5 mM EDTA pH 8.3. Bands were located by WV light (254 nm), photographed, and quantitated by microdensitometry. The correction coefficient 1.47±0.30 was used for decreased stainability of form I DNA vs form II DNA and form III DNA.

Data set [7] relates to ΦX 174 DNA Plasmid (Form I). The following applies: literature (Bernadou 1989, Vialas 2000, Meunier 1992); cited from earlier work.

Each structure is given as a SMILES string.

The values that follow come from patent publication US6403788B1, “Non-genotoxic metalloporphyrins as synthetic catalytic scavengers of reactive oxygen species” (Eukarion, Inc., priority 2000, dated 2002).

Regarding `CC[NH+](CC)CCNS(=O)(=O)c1c(C)cc(C)c(C2=C3C=CC4=[N+]3[Mn-]35[n]6c2ccc6C(c2c(C)cc(C)c(S(=O)(=O)NCC[NH+](CC)CC)c2C)=C2C=CC(=[N+]23)C(c2c(C)cc(C)c(S(=O)(=O)NCC[NH+](CC)CC)c2C)=c2ccc([n]25)=C4c2c(C)cc(C)c(S(=O)(=O)NCC[NH+](CC)CC)c2C)c1C.[Cl-].[Cl-].[Cl-].[Cl-].[Cl-]` [Structural Formula IV, meso-tetrakis[3-(N-(2-(N,N-diethylammonio)ethyl)aminosulfonyl)-2,4,6-trimethylphenyl]porphyrinato diaqua-manganese (III) pentachloride], in data set [1] (7 nmoles/ear topically), the “effect on edema compared to vehicle” value was “effective in reducing the percentage of edema”. In addition, the “percent edema (% water in the right ear-left ear)” value in data set [1] (7 nmoles/ear topically immediately after oxazolone challenge, vehicle control 6.5%) was determined as 3.9%. In addition, in data set [2], the “CATALASE* Rate at 20 mins.” value is reported as 1.0 nmole H2O2/nmole Structural Formula compound. Also, the “CATALASE** H2O2 Consumption” value in data set [3] is 189.9 nmole H2O2/nmole Structural Formula compound. The “PEROXIDASE Initial Rate” value in data set [4] is listed as 0.021 change in absorbance per min. Besides, the “Cyt C SOD 1/(IC50, μM)” value in data set [5] came out at 0.043 µM⁻¹.
As for `C[n+]1ccc(-c2c3nc(c(-c4cc[n+](C)cc4)c4ccc([n-]4)c(-c4cc[n+](C)cc4)c4nc(c(-c5cc[n+](C)cc5)c5ccc2[n-]5)C=C4)C=C3)cc1.[Mn+3]` [MnTMPyP, 5, 10, 15, 20 meso-tetrakis(4-methylpyridiniumyl)porphyrinato-manganese (III), reference compound], in data set [6] (KHSO5 10 μM), the “S (single-strand breaks per DNA molecule)” value is reported as 15.3 SSBs, the “form % I” value is on record as 1%, the “form % II” value is 86% and the “form % III” value is reported as 13%. Further, in data set [6] (without KHSO5), the “S (single-strand breaks per DNA molecule)” value was found to be 0.03 SSBs, the “form % I” value was 90%, the “form % II” value came to 10% and the “form % III” value came to 0%. The “times more active in DNA cleavage than Structural Formula V” value in data set [6] (same concentration (10 nM), with KHSO5, from experiments 6, 9 and 10) turned out to be 1527 times. For the same compound, the “CATALASE* Rate at 20 mins.” value in data set [2] is reported as 3.4 nmole H2O2/nmole Structural Formula compound. Also, the “CATALASE** H2O2 Consumption” value in data set [3] is given as 31.1 nmole H2O2/nmole Structural Formula compound. In data set [4], the “PEROXIDASE Initial Rate” value is 0.0672 change in absorbance per min. Besides, the “Cyt C SOD 1/(IC50, μM)” value in data set [5] worked out at 0.143 µM⁻¹. The “oxidative DNA cleavage (literature statement)” value in data set [7] is reported as “able to generate DNA damage at nanomolar concentrations”.
